In PubChem BioAssay AID328 (DTP/NCI, 2004):
Values joined by “and” are separate entries in the source; they are usually repeats but may differ in a detail not shown here. Equal values may be shown once. Toxic doses and inconclusive results are not listed. Rule for the calls: active = survival T/C of 150% or more; inactive = T/C below 125% in these data.

Tested on: BDF1 mice, P388 leukemia ip, median survival T/C
Assay: NCI In Vivo Anticancer Drug Screen. Data for tumor model P388 Leukemia (intraperitoneal) in B6D2F1 (BDF1) mice
Settings: endpoint: median survival time, higher = longer survival
Method in brief: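 In tumour-bearing mice, survival after compound treatment is set against the vehicle group and given as a quotient.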

[1] = dose: 100.0 mg/kg/injection, schedule: Q01DX009 (ip), vehicle: Klucel (hydroxypropylcellulose) (HPC)
[2] = dose: 200.0 mg/kg/injection, schedule: Q01DX009 (ip), vehicle: Klucel (hydroxypropylcellulose) (HPC)
[3] = dose: 12.5 mg/kg/injection, schedule: Q01DX009 (ip), vehicle: saline
[4] = dose: 25.0 mg/kg/injection, schedule: Q01DX009 (ip), vehicle: saline
[5] = dose: 50.0 mg/kg/injection, schedule: Q01DX009 (ip), vehicle: saline
[6] = dose: 100.0 mg/kg/injection, schedule: Q01DX009 (ip), vehicle: saline
[7] = dose: 100.0 mg/kg/injection, schedule: Q04DX003 (ip), vehicle: saline with Tween-80
[8] = dose: 200.0 mg/kg/injection, schedule: Q01DX009 (ip), vehicle: saline
[9] = dose: 50.0 mg/kg/injection, schedule: Q01DX009 (ip), vehicle: Klucel (hydroxypropylcellulose) (HPC)
[10] = dose: 100.0 mg/kg/injection, schedule: Q04DX003 (ip), vehicle: Klucel (hydroxypropylcellulose) (HPC)
[11] = dose: 25.0 mg/kg/injection, schedule: Q01DX009 (ip), vehicle: saline with Tween-80
[12] = dose: 50.0 mg/kg/injection, schedule: Q01DX009 (ip), vehicle: saline with Tween-80
[13] = dose: 12.5 mg/kg/injection, schedule: Q01DX009 (ip), vehicle: saline with Tween-80

Measured: T/C

O=C(CSc1nc2ccccc2s1)c1sc2sc3ccccc3[n+]2c1[O-]
inactive: dose: 50.0 mg/kg/injection, schedule: Q01DX005 (ip), vehicle: saline with Tween-80 97 % of control | dose: 100.0 mg/kg/injection, schedule: Q01DX005 (ip), vehicle: saline with Tween-80 97 % of control | dose: 200.0 mg/kg/injection, schedule: Q01DX005 (ip), vehicle: saline with Tween-80 87 % of control

N#CCc1cnc2nc(N)nc(N)c2n1
inactive: dose: 3.13 mg/kg/injection, schedule: Q01DX009 (ip), vehicle: other 102 % of control | dose: 6.25 mg/kg/injection, schedule: Q01DX009 (ip), vehicle: other 98 % of control | dose: 12.5 mg/kg/injection, schedule: Q01DX009 (ip), vehicle: other 107 % of control | dose: 25.0 mg/kg/injection, schedule: Q01DX009 (ip), vehicle: other 107 % of control

COc1cc2c(c(OC)c1OC)CCC1(C)C(=O)NN=C21 (stereo unspecified)
inactive: [1] 108 % of control | [2] 106 % of control

CCOC1=C(N2CC2)C(=O)C(OCC)=C(N2CC2)C1=O
inactive: dose: 0.07 mg/kg/injection, schedule: Q01DX009 (ip), vehicle: saline with Tween-80 95 % of control | dose: 0.25 mg/kg/injection, schedule: Q04DX003 (ip), vehicle: saline 109 % of control | dose: 0.3 mg/kg/injection, schedule: Q01DX009 (ip), vehicle: saline with Tween-80 122 % of control | dose: 0.63 mg/kg/injection, schedule: Q04DX003 (ip), vehicle: saline 122 % of control | dose: 4.0 mg/kg/injection, schedule: Q01DX009 (ip), vehicle: saline 114 % of control
242 % of control and 105 % of control: dose: 2.0 mg/kg/injection, schedule: Q01DX009 (ip), vehicle: saline
active: dose: 0.25 mg/kg/injection, schedule: Q01DX009 (ip), vehicle: saline 165 % of control | dose: 0.5 mg/kg/injection, schedule: Q01DX009 (ip), vehicle: saline 152 % of control and 190 % of control | dose: 0.5 mg/kg/injection, schedule: Q04DX003 (ip), vehicle: saline 154 % of control | dose: 0.6 mg/kg/injection, schedule: Q01DX009 (ip), vehicle: saline with Tween-80 153 % of control | dose: 1.0 mg/kg/injection, schedule: Q01DX009 (ip), vehicle: saline 245 % of control and 195 % of control | dose: 1.0 mg/kg/injection, schedule: Q04DX003 (ip), vehicle: saline 200 % of control | dose: 2.5 mg/kg/injection, schedule: Q04DX003 (ip), vehicle: saline 172 % of control

Cc1noc(C)c1CON
inactive: [3] 91 % of control | [4] 91 % of control | [5] 95 % of control

S=C1SC2(CCCCCC2)NC2=C1CCCCC2
inactive: [1] 106 % of control | [2] 103 % of control | dose: 400.0 mg/kg/injection, schedule: Q01DX009 (ip), vehicle: Klucel (hydroxypropylcellulose) (HPC) 105 % of control

ClCCCCCCCCc1ccccc1
inactive: [3] 102 % of control | [4] 100 % of control | dose: 44.0 mg/kg/injection, schedule: Q04DX003 (ip), vehicle: saline with Tween-80 122 % of control | [5] 107 % of control | dose: 66.0 mg/kg/injection, schedule: Q04DX003 (ip), vehicle: saline with Tween-80 100 % of control | [6] 100 % of control | [7] 118 % of control | [8] 108 % of control

CCN=C=NCCCN(C)C
inactive: dose: 7.5 mg/kg/injection, schedule: Q01DX009 (ip), vehicle: saline 105 % of control | dose: 15.0 mg/kg/injection, schedule: Q01DX009 (ip), vehicle: saline 105 % of control | dose: 30.0 mg/kg/injection, schedule: Q01DX009 (ip), vehicle: saline 94 % of control | dose: 60.0 mg/kg/injection, schedule: Q01DX009 (ip), vehicle: saline 100 % of control

Cc1cccc(CSc2ncnc3nc[nH]c23)n1
inactive: dose: 25.0 mg/kg/injection, schedule: Q01DX009 (ip), vehicle: Klucel (hydroxypropylcellulose) (HPC) 100 % of control | dose: 25.0 mg/kg/injection, schedule: Q04DX003 (ip), vehicle: Klucel (hydroxypropylcellulose) (HPC) 104 % of control | [9] 87 % of control | dose: 50.0 mg/kg/injection, schedule: Q04DX003 (ip), vehicle: Klucel (hydroxypropylcellulose) (HPC) 100 % of control | [1] 91 % of control | [10] 92 % of control and 104 % of control

CN(C)N/C=N/S(C)(=O)=O
inactive: [5] 101 % of control | [6] 101 % of control | [8] 109 % of control

N/C(=N\[N+](=O)[O-])N(CCCCl)N=O
inactive: [11] 103 % of control | dose: 33.0 mg/kg/injection, schedule: Q01DX009 (ip), vehicle: saline with Tween-80 108 % of control | dose: 37.5 mg/kg/injection, schedule: Q04DX003 (ip), vehicle: saline sonified 100 % of control | [12] 107 % of control | dose: 75.0 mg/kg/injection, schedule: Q04DX003 (ip), vehicle: saline sonified 100 % of control | dose: 100.0 mg/kg/injection, schedule: Q01DX009 (ip), vehicle: saline with Tween-80 120 % of control | [7] 109 % of control | dose: 150.0 mg/kg/injection, schedule: Q04DX003 (ip), vehicle: saline sonified 100 % of control | dose: 176.0 mg/kg/injection, schedule: Q04DX003 (ip), vehicle: saline sonified 100 % of control | dose: 200.0 mg/kg/injection, schedule: Q04DX003 (ip), vehicle: saline with Tween-80 122 % of control
active: dose: 27.0 mg/kg/injection, schedule: Q01DX009 (ip), vehicle: Klucel (hydroxypropylcellulose) (HPC) 152 % of control | dose: 40.0 mg/kg/injection, schedule: Q01DX009 (ip), vehicle: Klucel (hydroxypropylcellulose) (HPC) 157 % of control | dose: 60.0 mg/kg/injection, schedule: Q01DX009 (ip), vehicle: Klucel (hydroxypropylcellulose) (HPC) 166 % of control | dose: 112.5 mg/kg/injection, schedule: Q01DX009 (ip), vehicle: saline with Tween-80 154 % of control

CC(=O)Oc1cc(-c2ccccc2)c(OC(C)=O)cc1-c1ccccc1
inactive: dose: 6.25 mg/kg/injection, schedule: Q01DX009 (ip), vehicle: water 109 % of control | dose: 12.5 mg/kg/injection, schedule: Q01DX009 (ip), vehicle: water 95 % of control | dose: 12.5 mg/kg/injection, schedule: Q04DX003 (ip), vehicle: water 89 % of control | dose: 25.0 mg/kg/injection, schedule: Q01DX009 (ip), vehicle: water 93 % of control | dose: 25.0 mg/kg/injection, schedule: Q04DX003 (ip), vehicle: water 89 % of control and 95 % of control | dose: 50.0 mg/kg/injection, schedule: Q01DX009 (ip), vehicle: water 92 % of control | dose: 50.0 mg/kg/injection, schedule: Q04DX003 (ip), vehicle: water 91 % of control and 98 % of control | dose: 100.0 mg/kg/injection, schedule: Q01DX009 (ip), vehicle: water 94 % of control | dose: 100.0 mg/kg/injection, schedule: Q04DX003 (ip), vehicle: water 89 % of control and 95 % of control | dose: 200.0 mg/kg/injection, schedule: Q01DX009 (ip), vehicle: water 102 % of control | dose: 300.0 mg/kg/injection, schedule: Q01DX009 (ip), vehicle: water 107 % of control | dose: 400.0 mg/kg/injection, schedule: Q01DX009 (ip), vehicle: water 91 % of control

Cc1cc2c(C(C)C)c(O)c(O)cc2c(O)c1-c1c(C)cc2c(C(C)C)c(O)c(O)cc2c1O
inactive: [13] 91 % of control | [11] 100 % of control | [12] 120 % of control

CC=C=CCN(C)Cc1ccccc1
inactive: [3] 120 % of control | [4] 100 % of control | [5] 105 % of control and 109 % of control

C[C@]12CC[C@H](O)C[C@@H]1CC[C@@H]1[C@@H]2C(=O)C[C@@]2(C)[C@H]1CC[C@]2(O)C(=O)CBr
inactive: [13] 114 % of control | [9] 113 % of control | [1] 109 % of control | [10] 100 % of control | dose: 200.0 mg/kg/injection, schedule: Q01DX009 (ip), vehicle: saline with Tween-80 118 % of control | dose: 200.0 mg/kg/injection, schedule: Q04DX003 (ip), vehicle: Klucel (hydroxypropylcellulose) (HPC) 109 % of control | dose: 400.0 mg/kg/injection, schedule: Q04DX003 (ip), vehicle: Klucel (hydroxypropylcellulose) (HPC) 113 % of control

COC(=O)/C=C1/OC(=O)CC1(C)C
inactive: dose: 100.0 mg/kg/injection, schedule: Q01DX001 (ip), vehicle: saline with Tween-80 105 % of control | dose: 200.0 mg/kg/injection, schedule: Q01DX001 (ip), vehicle: saline with Tween-80 95 % of control | dose: 400.0 mg/kg/injection, schedule: Q01DX001 (ip), vehicle: saline with Tween-80 100 % of control
